# From patent publication US20190352276A1, “INHIBITORS OF BRUTON'S TYROSINE KINASE” (Joint Stock Company "Biocad", priority 2016, published 2019)
# Key:
# [1] = system: Mino (mantle cell lymphoma); assay: Antiproliferative activity, Mino cells (Alamar Blue); format: cell-based; settings: Homo sapiens
# Method: (§1) Antiproliferative activity of BTK inhibitors was measured in cell-based bioassay on B-cells cultures: Mino (mantle cell lymphoma, ATCC® CRL-3000™), Z-138 (mantle cell lymphoma, ATCC® CRL-3001™) and DOHH2 (follicular lymphoma, Creative Bioarray CSC-C0219) using cell viability reagent Alamar Blue (Invitrogen, #DAL 1100). Cells were cultured in 10% FB S-supplemented (HyClone, #SH3008803/Gibco, #16140-071) RPMI-1640 (PanEco, #S330p) for at least 1 passage after thawing, washed with PBS and passaged in 96-well culture plates (Corning, #3599) with growth medium with 10% FBS (HyClone, #SH3008803/Gibco, #16140-071) and antibiotic (50 μg/ml of gentamicin (Biolot, #1.3.16))≈3*10^4 cells in 50 μl of medium per well.
# (§2) The compounds were dissolved in DMSO and diluted with the assay medium to final concentrations ranging from […]. 150 μl of each diluted compound were then added to each well (final concentration of DMSO was less than 1%) and incubated at 37° C. in an incubator under 5% of CO2 for 72 h. After incubation, 20 μl of Alamar Blue reagent (Invitrogen, #DAL1100) were added to each well. The plates were shaked on an orbital shaker (Biosan, Latvia) and then incubated for 14-16 hours at 37° C. in the incubator.
# (§3) The number of living cells were estimated, measuring the fluorescence signal at the excitation wavelength (REx) of 540 nm and the emission wavelength (λEm) of 590 nm on a microplate reader (Tecan Infinite M200Pro, Switzerland).
# (§4) For each compound, IC50 was calculated using Magellan 7.2 software (Tecan, Switzerland) approximating experimental points by four-parameter logistic model with the optimization by Levenberg-Marquardt.
# [2] = system: HepG2 cells (hepatocellular carcinoma); assay: General cytotoxicity on HepG2 cells (CC50; therapeutic index CC50 HepG2/IC50 Mino); format: cell-based; settings: therapeutic index
# Method: (§5) The CC50 values were determined in the test for General cytotoxicity on HepG2 cells (hepatocellular carcinoma, ATCC® HB-8065™). 2*10^4 cells (in 50 μl) per well were seeded in 96-well plates (Corning, #3599) in DMEM medium (PanEco, #S420p), after 24 h of incubation 150 μl of candidate compounds were added to each well in the range of final concentrations from 200 μM to 4 μM and the plate was incubated in a total volume of 200 μl for 72 hours. Viability of the cells was assessed using Alamar Blue dye (Invitrogen, #DAL 1100). CC50 was determined similarly (table 10).
# (§6) The relationship between toxic (CC50) and a therapeutic (IC50) effects of the dose is the therapeutic index, which can be expressed as the ratio between CC50 (HepG2) (general cytotoxicity of the candidate) and IC50 (Mino) (antiproliferative activity on the target cells): […]
# [3] = as above; format: cell-based; settings: human, HepG2 cells (hepatocellular carcinoma), 72 hours, Alamar Blue
# Method: as §5, §6
# [4] = system: Z-138 (mantle cell lymphoma); assay: Antiproliferative activity, Z-138 cells (Alamar Blue); format: cell-based; settings: Homo sapiens
# Method: as §1, §2, §3, §4
# [5] = Chemical stability in artificial gastric fluid (SGF without enzymes); settings: 10 μM in SGF without enzymes, pH=1.4, 37° C.
# Method: The initial candidate solution (10 mM in DMSO) was diluted with the working solution of SGF to the concentration of 10 μm (test solution). The test solution was incubated in a dry block heater at 37° C. We determined peak areas of the compounds corresponding to the start of the test (before incubating) and the end of the test (after incubating in a dry block heater at 37° C.) by HPLC using Agilent1200 chromatograph (Agilent, USA). We used gradient elution (1 mL/min flow rate). We determined amount of substance in the sample in % after incubation.
# We evaluated the stability of the compounds.
# [6] = Table 10, 72 h, average of several tests
# [7] = Table 10, average of several tests
SMILES,"IC50 [1, 6] [µM]","IC50 [4, 6] [µM]",Amount of substance in the sample in % (chemical stability) [5] [%],"IC50 ([1]; Table 11, 72 h) [µM]","IC50 ([4]; Table 11, 72 h) [µM]",CC50 (HepG2)/IC50 (Mino) ([2]; Table 10),"CC50 at 72 h [3, 7] [µM]",CC50 (HepG2)/IC50 (Mino) ([2]; Table 11),CC50 at 72 h ([3]; Table 11) [µM]
"C=CC(=O)N1CCC[C@@H](n2nc(-c3ccc(-n4ccc(=O)cc4)cc3)c3c(N)ncc(Cl)c32)C1 [BCD-BTK-9, (R)-1-(4-(1-(1-acryloylpiperidin-3-yl)-4-amino-7-chloro-1H-pyrazolo[4,3-c]pyridin-3-yl)phenyl)pyridin-4(1H)-one]",23.5,44.1,100.0,–,–,>4.25,> 100,–,–
"C=CC(=O)N1CCC[C@@H](n2nc(-c3ccc(-n4ccc(=O)cc4)cc3)c3c(Cl)c(O)cnc32)C1 [BCD-BTK-13, (R)-1-(4-(1-(1-acryloylpiperidin-3-yl)-4-chloro-5-hydroxy-1H-pyrazolo[3,4-b]pyridin-3-yl)phenyl)pyridin-4(1H)-one]",37.1,> 50,91.0,–,–,>2.70,> 100,–,–
"C=CC(=O)N1CCC[C@@H](n2nc(-c3ccc(-n4ccc(=O)cc4)cc3)c3cncc(Cl)c32)C1 [BCD-BTK-30, (R)-1-(4-(1-(1-acryloylpiperidin-3-yl)-7-chloro-1H-pyrazolo[4,3-c]pyridin-3-yl)phenyl)pyridin-4(1H)-one]",15.6,22.7,97.7,–,–,3.94,61.5,–,–
"C=CC(=O)N1CCC[C@@H](n2nc(-c3ccc(-n4ccc(=O)cc4)nc3)c3cncc(Cl)c32)C1 [BCD-BTK-56, (R)-5′-(1-(1-acryloylpiperidin-3-yl)-7-chloro-1H-pyrazolo[4,3-c]pyridin-3-yl)-4H-[1,2′-bipyridin]-4-one]",32.5,30.5,99.0,–,–,>1.54,> 50,–,–
"C=CC(=O)N1CCC[C@@H](n2nc(-c3cnc(-n4ccc(=O)cc4)nc3)c3c(N)ncc(Cl)c32)C1 [BCD-BTK-74, (R)-1-(5-(1-(1-acryloylpiperidin-3-yl)-4-amino-7-chloro-1H-pyrazolo[4,3-c]pyridin-3-yl)pyrimidin-2-yl)pyridin-4(1H)-one]",21.9,17.6,98.7,–,–,4.57,100,–,–
"C=CC(=O)N1CCC[C@@H](n2nc(-c3ccc(-n4ccc(=O)cc4)nc3)c3c(N)ncc(Cl)c32)C1 [BCD-BTK-76, (R)-5′-(1-(1-acryloylpiperidin-3-yl)-4-amino-7-chloro-1H-pyrazolo[4,3-c]pyridin-3-yl)-4H-[1,2′-bipyridin]-4-one]",16,19.6,99.7,–,–,>6.27,> 100,–,–
"C=CC(=O)Nc1cc2c(-c3ccc(-n4ccc(=O)cc4)cc3)nn([C@@H]3CCCN(C(=O)C=C)C3)c2nc1C [BCD-BTK-117, (R)-N-(1-(1-acryloylpiperidin-3-yl)-6-methyl-3-(4-(4-oxopyridin-1(4H)-yl)phenyl)-1H-pyrazolo[3,4-b]pyridin5-yl)acrylamide]",13.3,23.4,99.7,–,–,>3.76,> 50,–,–
"C=CC(=O)Oc1cc(C#N)c2c(c1)c(-c1ccc(-n3ccc(=O)cc3)cc1)nn2[C@@H]1CCCN(C(=O)C=C)C1 [BCD-BTK-118, (R)-1-(1-acryloylpiperidin-3-yl)-7-cyano-3-(4-(4-oxopyridin-1(4H)-yl)phenyl)-1H-indazol-5-yl acrylate]",13.7,7.84,95.4,–,–,4.83,66.2,–,–

# More lines, main results first:
"IC50 [1, 6] [µM]","IC50 [4, 6] [µM]",Amount of substance in the sample in % (chemical stability) [5] [%],"IC50 ([1]; Table 11, 72 h) [µM]","IC50 ([4]; Table 11, 72 h) [µM]",SMILES,CC50 (HepG2)/IC50 (Mino) ([2]; Table 10),"CC50 at 72 h [3, 7] [µM]",CC50 (HepG2)/IC50 (Mino) ([2]; Table 11),CC50 at 72 h ([3]; Table 11) [µM]
12.3,25.5,100.0,–,–,"C=CC(=O)N1CCC[C@@H](n2nc(-c3ccc(-n4ccc(=O)cc4)cc3)c3cc(N)c(C)nc32)C1 [BCD-BTK-119, (R)-1-(4-(1-(1-acryloylpiperidin-3-yl)-5-amino-6-methyl-1H-pyrazolo[3,4-b]pyridin-3-yl)phenyl) pyridin-4(1H)-one]",>8.16,> 100,–,–
35.6,36.5,97.5,–,–,"C=CC(=O)N1CCC[C@@H](n2nc(-c3ccc(-n4ccc(=O)cc4)cc3)c3cc(O)cc(C#N)c32)C1 [BCD-BTK-122, (R)-1-(1-acryloylpiperidin-3-yl)-5-hydroxy-3-(4-(4-oxopyridin-1(4H)-yl)phenyl)-1H-indazol-7-carbonitrile]",>2.81,> 100,–,–
12.5,> 50,89.9,–,–,"C=CC(=O)Oc1cnc2c(c(-c3ccc(-n4ccc(=O)cc4)cc3)nn2[C@@H]2CCCN(C(=O)C=C)C2)c1Cl [BCD-BTK-136, (R)-1-(1-acryloylpiperidin-3-yl)-4-chloro-3-(4-(4-oxopyridin-1(4H)phenyl)-1H-pyrazolo[3,4-b]pyridin-5-yl acrylate]",>7.97,> 100,–,–
11.6,25.6,94.3,–,–,C=CC(=O)N1CCC[C@@H](n2nc(-c3ccc(Oc4ccncc4)cc3)c3cc(O)cc(C#N)c32)C1 [BCD-BTK-137],5.70,65.9,–,–
16.9,> 50,99.4,–,–,"C=CC(=O)N1CCC[C@@H](n2nc(-c3ccc(Oc4ccncc4)cc3)c3cncc(C(N)=O)c32)C1 [BCD-BTK-140, (R)-1-(1-acryloylpiperidin-3-yl)-3-(4-(pyridin-4-yloxy)phenyl)-1H-pyrazolo[4,3-c]pyridin-7-carboxamide]",>5.93,> 100,–,–
28.8,> 50,–,–,–,"C=CC(=O)N1CCC[C@@H](n2nc(-c3ccc(C(=O)Nc4ncccc4F)cc3)c3cncc(F)c32)C1 [BCD-BTK-249, (R)-4-(1-(1-acryloylpiperidin-3-yl)-7-fluoro-1H-pyrazolo[4,3-c]pyridin-3-yl)-N-(3-fluoropyridin-2-yl)benzamide]",>3.47,~100,–,–
5.63,4.67,–,–,–,"CC#CC(=O)N1CC(n2nc(-c3ccc(Oc4ccncc4)cc3)c3cncc(Cl)c32)C1 [BCD-BTK-281, 1-(3-(7-chloro-3-(4-(pyridin-4-yloxy)phenyl)-1H-pyrazolo[4,3-c]pyridin-1-yl)azetidin-1-yl)but-2-yn-1-one]",2.81,15.8,–,–
4.02,4.3,–,–,–,"C=CC(=O)N1CC(n2nc(-c3ccc(Oc4ccncc4)cc3)c3cncc(Cl)c32)C1 [BCD-BTK-282, 1-(3-(7-chloro-3-(4-(pyridin-4-yloxy)phenyl)-1H-pyrazolo[4,3-c]pyridin-1-yl)azetidin-1-yl)prop-2-en-1-one]",2.35,9.45,–,–
–,–,–,9.18,15.1,"C=CC(=O)N1CCC[C@@H](n2nc(-c3ccc(Oc4ccccc4)cc3)c3c(N)ncnc32)C1 [Ibrutinib, ibrutinib, reference compound]",–,–,5.98,54.9
